Measured values taken from US6913882B2, “Methods of screening for B cell activity modulators” (Affymetrix, Inc., priority 1999, dated 2005).
Read-outs that look alike come from different tables or passages of the source. Values belong to the molecule of their own block, whether it stands above or below them.

Legend:
early response genes = test: B cell activation (HEL or anti-mu, 1 hr) with FK506, EGTA or PD98059, early response gene expression on arrays; type: cell-based, mice
Experimental: (§1) Splenic B cells from non-transgenic, Ig^HEL or sHEL/Ig^HEL transgenic mice were purified at room temperature in 1% bovine calf serum in RPMI. The spleen cells were stained with CD4, CD8 and Mac-1 FITC conjugated antibodies (Caltag) and depleted of T cells and macrophages with sheep anti-FITC magnetic beads (Perseptive Biosystems). The remaining cells were 85-95% B220 positive and were either lysed immediately (naive and tolerant cell preps) or stimulated in RPMI with 1% serum at 37° C. at 2-3×10^6 cells/ml. For stimulation experiments, HEL (Sigma) was used at 500 ng/ml, goat anti-mu (Jackson Labs) at 10 μg/ml, FK506 at 10 ng/ml, PD98059 (NEB) at 20 μM unless stated otherwise, ionomycin at 1 μM and EGTA at 3 mM. Cells were preincubated for 45 minutes with PD98059, 15 minutes with FK506 and 2 minutes with EGTA before addition of HEL or anti-mu. Mock stimulations were performed by addition of carrier alone for stimuli or inhibitors. At the end of the incubation, the cells were pelleted by centrifugation, resuspended in a minimal volume of medium (about 50 μl) by pipetting and lysed in 0.5-1 ml Trizol (Gibco BRL).
(§2) Trizol lysates were phenol-extracted and precipitated with isopropanol. Poly A+ RNA was purified with Oligotex (Qiagen). cDNA was synthesised with a Superscriptll cDNA synthesis kit (Gibco BRL) using a T7:(dT)24 oligo to prime the first strand and purified by phenol extraction and ethanol precipitation. […]
Each gene on the arrays was tiled as a collection of approximately 20 probe pairs. […] The perfect match—mismatch intensities (PM—MM) were calculated for each probe pair for each gene in each experiment. […] Positive t values associated with a probability of less than 0.1 were scored as increased, negative t values with a probability of less than 0.1 were scored as decreased. The number of increased and decreased probe pairs associated with each gene was determined and called npos and nneg respectively (of the approximately 20 probe pairs tiled for each gene). […] The probability of scoring npos or more of the total number of probe pairs was determined. […]

B cell = B cell death on activation in the presence of FK506; type: cell-based
Egr-1 = test: B cell activation with PD98059 titration, Egr-1 upregulation monitored on expression arrays; type: cell-based, mice
Experimental: as §1
as §2, with “precipitation. The cDNA was used as a template for in vitro transcription (IVT) using the Megascript system (Ambion) with the inclusion of biotinylated CTP and UTP.” for “precipitation.”
An intensity for each gene was calculated based on a trimmed mean of the PM—MM values. […]
In addition to NFAT, the ERK pathway is also activated in foreign or self antigen-stimulated cells. To determine downstream transcriptional effects of ERK, the effect of MEK, an ERK kinase, on B cell activation was determined. The MEK inhibitor PD98059 was titrated in B cell activation experiments and gene expression was monitored using one of the four arrays in the set (approximately 1600 genes). […]

SMILES: O=C(O)CN(CCOCCOCCN(CC(=O)O)CC(=O)O)CC(=O)O [EGTA]
effect on the transcript profile of stimulated naïve cells (early response genes; EGTA, FIG. 3C): essentially the same effect on the transcript profile as FK506

SMILES: C=CC[C@@H]1/C=C(\C)C[C@H](C)C[C@H](OC)[C@H]2O[C@@](O)(C(=O)C(=O)N3CCCC[C@H]3C(=O)O[C@H](/C(C)=C/[C@@H]3CC[C@@H](O)[C@H](OC)C3)[C@H](C)[C@@H](O)CC1=O)[C@H](C)C[C@@H]2OC [FK506]
B cell death on activation (B cell): increased B cell death

IC50 (Egr-1; B cell activation, PD98059 titrated, read-out: concentration at which upregulation of Egr-1 was 50% inhibited): 5 to 10 µM
IC50 (Egr-1; anti-mu stimulation of non-transgenic B cells, FIG. 3D, read-out: IC50 for inhibition of upregulation of Egr-1): ~5 µM
SMILES: COc1cccc(-c2cc(=O)c3ccccc3o2)c1N [PD98059]
inhibition of upregulation of Egr-1 (Egr-1; 20 μM PD98059): totally inhibited
sensitivity of induction of three transcripts (Egr-1, NAB2 and Gfi-1) upregulated by both self and foreign antigen (early response genes; FIG. 3D (PD98059), FIG. 3A (FK506)): sensitive
sensitivity of regulation of other early response genes relative to Egr-1 (early response genes; PD98059 titration): less sensitive
